Experiment [1] concerns DLD-1 BRCA2−/− cells. Nature of the experiment: Homologous recombination synthetic lethal inhibition of proliferation, DLD-1 BRCA2-/- (Cell Titre Glo 3D). The class given is cell-based. The settings on record: for IC50: Homo sapiens. The method in brief:
(§1)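 Cells are seeded in RPMI 1640 (phenol red free, 10% FBS, GlutaMAX) onto pre-dosed compound (10 μM to 0.51 nM, three-fold). Plates are incubated at 37 °C, and medium plus compound are refreshed on day 6. Viability is read by CellTiter-Glo 3D at day 7 (DLD-1) or day 12 (DLD-1 BRCA2−/−), and the IC50 is fitted.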

In experiment [2] the test system is DLD-1 cells. Nature of the experiment: Inhibition of proliferation, DLD-1 BRCA2 wt control (Cell Titre Glo 3D). The class given is cell-based. The settings on record: for IC50: Homo sapiens. An outline of the steps:
as §1

Where [3] appears, read: DLD-1, 288 h, DLD-1 BRCA2−/− cells, 12 days, read-out: POLQ PD Prolif Lumin BRCA2 −/− mean pIC50 (converted).
Setting [4] is: DLD-1, 168 h, DLD-1 BRCA2 wt cells, 7 days, read-out: POLQ PD Prolif Lumin DLD1 mean pIC50 (converted).
Setting [5] is: DLD-1, DLD-1 BRCA2 −/−, mean, read-out: POLQ PD Prolif Lumin BRCA2 −/− mean pIC50 (converted).
Setting [6] is: DLD-1, DLD1 BRCA2 wt, mean, read-out: POLQ PD Prolif Lumin DLD1 mean pIC50 (converted).
Where [7] appears, read: DLD-1, first proliferation column (c5), DLD-1 BRCA2-/-, read-out: POLQ PD Prolif Lumin (converted).
Where [8] appears, read: DLD-1, second proliferation column (c6), DLD-1 BRCA2 wt control, read-out: POLQ PD Prolif Lumin (converted).

The structures appear in SMILES notation. Read-outs that look alike come from different tables or passages of the source.

As for `Cc1cc(N2CC(N(C)C)C2)ncc1-c1nc2c(OC3(C)CC3)ncnc2n1Cc1ccccc1` [Example F2, 1-(5-(9-benzyl-6-(1-methylcyclopropoxy)-9H-purin-8-yl)-4-methylpyridin-2-yl)-N,N-dimethylazetidin-3-amine], the IC50 in experiment [1] (setting [3]) was 316 nM; in experiment [2] (setting [4]) it was more than 10000 nM.

With `CC1(Oc2ncnc3c2nc(-c2ccc(OCCN4CCNCC4)cc2Cl)n3Cc2ccccn2)CCC1` [Example J7, 8-(2-chloro-4-(2-(piperazin-1-yl)ethoxy)phenyl)-6-(1-methylcyclobutoxy)-9-(pyridin-2-ylmethyl)-9H-purine], the IC50 in experiment [1] (setting [3]) is 316 nM; in experiment [2] (setting [4]), 7940 nM.

For the molecule `CN1CCCC1CCOc1ccc(-c2nc3c(OC4(C)CC4)ncnc3n2Cc2ccccc2)c(Cl)c1` (single isomer, unassigned) [Example D4, 9-benzyl-8-(2-chloro-4-(2-(1-methylpyrrolidin-2-yl)ethoxy)phenyl)-6-(1-methylcyclopropoxy)-9H-purine], the “POLQ PD Prolif Lumin BRCA2 −/− mean pIC50” value in experiment [1] (DLD-1 BRCA2−/− cells, 12 days) was 7.3. Further, the “POLQ PD Prolif Lumin DLD1 mean pIC50” value in experiment [2] (DLD-1 BRCA2 wt cells, 7 days) was determined as 6.2.

As for `C[C@@H](Cn1c(-c2ccc(OCCN3CCNCC3)cc2Cl)nc2c(OC3(C)CC3)ncnc21)c1ccccc1` [Example J10, (R)-8-(2-chloro-4-(2-(piperazin-1-yl)ethoxy)phenyl)-6-(1-methylcyclopropoxy)-9-(2-phenylpropyl)-9H-purine], the IC50 is 631 nM in experiment [1] (setting [3]) and 3980 nM in experiment [2] (setting [4]).

With `CN(CCOc1ccc(-c2nc3c(OC4(C)CC4)ncnc3n2Cc2ccccc2)c(Cl)c1)CC(=O)O` [Example D30, N-(2-(4-(9-benzyl-6-(1-methylcyclopropoxy)-9H-purin-8-yl)-3-chlorophenoxy)ethyl)-N-methylglycine], the IC50 in experiment [1] (setting [3]) is 1260 nM; in experiment [2] (setting [4]), more than 10000 nM.

Regarding `CC1(Oc2ncnc3c2nc(-c2ccc(OCCCN4CCNC(=O)C4)cc2Cl)n3Cc2ccccc2)CC1` [Example S2, 4-(3-(4-(9-benzyl-6-(1-methylcyclopropoxy)-9H-purin-8-yl)-3-chlorophenoxy)propyl)piperazin-2-one], the IC50 in experiment [1] (setting [3]) is 50.1 nM; in experiment [2] (setting [4]), 2510 nM.

Regarding `Cc1ccnc(Cn2c(-c3ccc(OCCN4CCNCC4)cc3Cl)nc3c(OC(C)(C)C)cccc32)c1` [Example T609, 4-(tert-butoxy)-2-(2-chloro-4-(2-(piperazin-1-yl)ethoxy)phenyl)-1-((4-methylpyridin-2-yl)methyl)-1H-benzo[d]imidazole], the IC50 in experiment [1] (DLD-1, first proliferation column, DLD-1 BRCA2-/-, read-out: POLQ PD Prolif Lumin (converted)) was 1580 nM; in experiment [2] (DLD-1, second proliferation column, DLD-1 BRCA2 wt control, read-out: POLQ PD Prolif Lumin (converted)), more than 10000 nM.

Regarding `CC1(Oc2ncnc3c2nc(-c2ccc(OCCN4CC5CC(C4)N5)cc2Cl)n3Cc2ccccc2)CC1` [Example R5, 3-(2-(4-(9-benzyl-6-(1-methylcyclopropoxy)-9H-purin-8-yl)-3-chlorophenoxy)ethyl)-3,6-diazabicyclo[3.1.1]heptane], the IC50 in experiment [1] (setting [3]) is 100 nM; in experiment [2] (setting [4]), 3980 nM.

With `COc1ccc(-c2nc3c(OC4(C)CC4)ncnc3n2Cc2ccccc2)c(Cl)c1` [Example N8, 9-Benzyl-8-(2-chloro-4-methoxyphenyl)-6-(1-methylcyclopropoxy)-9H-purine], the IC50 in experiment [1] (setting [3]) is 251 nM; in experiment [2] (setting [4]), more than 10000 nM.

As for `CC(=O)N1CCN(CCOc2cc(C)c(-c3nc4c(OC5(C)CC5)ncnc4n3Cc3ccccc3)cn2)CC1` [Example G4, 1-(4-(2-((5-(9-benzyl-6-(1-methylcyclopropoxy)-9H-purin-8-yl)-4-methylpyridin-2-yl)oxy)ethyl)piperazin-1-yl)ethan-1-one], the results for the IC50 in experiment [1] (setting [3]) and in experiment [2] (setting [4]) were 1260 nM and more than 10000 nM, respectively.

On to `CN1CCN(CCOc2ccc(-c3nc4c(OC5(C)CC5)ncnc4n3Cc3ccccc3)c(Cl)c2)CC1` [Example 4, 9-Benzyl-8-(2-chloro-4-(2-(4-methylpiperazin-1-yl)ethoxy)phenyl)-6-(1-methylcyclopropoxy)-9H-purine], for which the IC50 in experiment [1] (setting [3]) is 63.1 nM; in experiment [2] (setting [4]) it was 3980 nM.

Turning to `COc1ccc(C)cc1Cn1c(-c2cccc(OCCC(=O)O)c2Cl)nc2c(OC3(C)CC3)ncnc21` [Example U89, 3-(2-chloro-3-(9-(2-methoxy-5-methylbenzyl)-6-(1-methylcyclopropoxy)-9H-purin-8-yl)phenoxy)propanoic acid], the IC50 was 15.8 nM in experiment [1] (setting [5]) and 7940 nM in experiment [2] (setting [6]).

Take `CC1(Oc2ncnc3c2nc(-c2ccc(OCCC(=O)O)cc2Cl)n3Cc2cccc(Cl)c2Cl)CC1` [Example T85, 3-(3-chloro-4-(9-(2,3-dichlorobenzyl)-6-(1-methylcyclopropoxy)-9H-purin-8-yl)phenoxy)propanoic acid]: the IC50 in experiment [1] (DLD-1, DLD-1 BRCA2 −/− cells, mean, read-out: POLQ PD Prolif Lumin BRCA2 −/− mean pIC50 (converted)) is 794 nM; in experiment [2] (DLD-1, DLD1 BRCA2 wt cells, mean, read-out: POLQ PD Prolif Lumin DLD1 mean PIC50 (converted)), more than 10000 nM.

In the case of `CC(=O)N1CCC(COc2ccc(-c3nc4c(OC5(C)CC5)ncnc4n3Cc3ccccc3)c(Cl)c2)CC1` [Example D1, 1-(4-((4-(9-benzyl-6-(1-methylcyclopropoxy)-9H-purin-8-yl)-3-chlorophenoxy)methyl)piperidin-1-yl)ethan-1-one], the IC50 was 79.4 nM in experiment [1] (setting [3]) and 6310 nM in experiment [2] (setting [4]).

Regarding `CC1(Oc2ncnc3c2nc(-c2ccc(OCCCCC(=O)O)cc2Cl)n3Cc2cccc(Cl)c2)CC1` [Example 43, 5-(3-Chloro-4-(9-(3-chlorobenzyl)-6-(1-methylcyclopropoxy)-9H-purin-8-yl)phenoxy)pentanoic acid], the IC50 in experiment [1] (DLD-1, 288 h, DLD-1 BRCA2−/−, 12 days, Cell Titre Glo 3D, read-out: POLQ PD Prolif Lumin BRCA2 −/− Mean pIC50 (converted)) was 79.4 nM; in experiment [2] (DLD-1, 168 h, DLD-1 (BRCA2 wt control), 7 days, Cell Titre Glo 3D, read-out: POLQ PD Prolif Lumin DLD1 Mean pIC50 (converted)) it was more than 10000 nM.

As to `CC(CCOc1ccc(-c2nc3c(OC4(C)CC4)ncnc3n2Cc2ccccc2Br)c(Cl)c1)C(=O)O` (racemic) [Example T278, 4-(4-(9-(2-bromobenzyl)-6-(1-methylcyclopropoxy)-9H-purin-8-yl)-3-chlorophenoxy)-2-methylbutanoic acid], the IC50 in experiment [1] (DLD-1, DLD-1 BRCA2-/- proliferation, column head only partly shown, read-out: POLQ PD Prolif Lumin (converted)) is 316 nM; in experiment [2] (DLD-1, DLD-1 BRCA2 wt control proliferation, column head only partly shown, read-out: POLQ PD Prolif Lumin (converted)) it was more than 10000 nM.

As to `CC1(Oc2ncnc3c2nc(-c2ccc(OCCN4CCNCC4)cc2Cl)n3Cc2cncc(Cl)c2)CC1` [Example T379, 8-(2-chloro-4-(2-(piperazin-1-yl)ethoxy)phenyl)-9-((5-chloropyridin-3-yl)methyl)-6-(1-methylcyclopropoxy)-9H-purine], the IC50 in experiment [1] (DLD-1, first proliferation column (c5), taken as DLD-1 BRCA2-/-, read-out: POLQ PD Prolif Lumin (converted)) was 251 nM; in experiment [2] (DLD-1, second proliferation column (c6), taken as DLD-1 BRCA2 wt, read-out: POLQ PD Prolif Lumin (converted)) it was more than 10000 nM.

Turning to `CC1(Oc2ncnc3c2nc(-c2ccc(OCCCC(C)(C)C(=O)O)cc2Cl)n3Cc2cccc(Cl)c2)CC1` [Example T563, 5-(3-chloro-4-(9-(3-chlorobenzyl)-6-(1-methylcyclopropoxy)-9H-purin-8-yl)phenoxy)-2,2-dimethylpentanoic acid], the IC50 was 200 nM in experiment [1] (setting [7]) and 10000 nM in experiment [2] (setting [8]).

As for `Cc1cc(Cn2c(-c3ccc(OCCN4CCNCC4)cc3Cl)nc3c(OC4(C)CC4)ncnc32)ccn1` [Example T531, 8-(2-chloro-4-(2-(piperazin-1-yl)ethoxy)phenyl)-6-(1-methylcyclopropoxy)-9-((2-methylpyridin-4-yl)methyl)-9H-purine], the IC50 in experiment [1] (setting [7]) was 6310 nM; in experiment [2] (setting [8]), more than 10000 nM.

Regarding `CC1(Oc2ncnc3c2nc(-c2ccc(N4CCNCC4)cc2Cl)n3Cc2ccccc2)CC1` [Example C7, 9-benzyl-8-(2-chloro-4-(piperazin-1-yl)phenyl)-6-(1-methylcyclopropoxy)-9H-purine], the IC50 in experiment [1] (setting [3]) was 251 nM; in experiment [2] (setting [4]) it was 6310 nM.

For `COc1cccc(-c2nc3c(OC4(C)CC4)ncnc3n2Cc2ccccc2)c1Cl` [Example C6, 9-benzyl-8-(2-chloro-3-methoxyphenyl)-6-(1-methylcyclopropoxy)-9H-purine], the IC50 was 79.4 nM in experiment [1] (setting [3]) and more than 10000 nM in experiment [2] (setting [4]).

For the molecule `CC(C)(Oc1ncnc2c1nc(-c1ccc(OCCN3CCNCC3)cc1Cl)n2Cc1ccccc1)C(F)(F)F` [Example 11, 9-Benzyl-8-(2-chloro-4-(2-(piperazin-1-yl)ethoxy)phenyl)-6-((1,1,1-trifluoro-2-methylpropan-2-yl)oxy)-9H-purine], the results for the IC50 in experiment [1] (setting [3]) and in experiment [2] (setting [4]) were 251 nM and 794 nM, respectively.

Turning to `C[C@@H](CCOc1ccc(-c2nc3c(OC4(C)CC4)ncnc3n2Cc2cc(Cl)ccc2C#N)c(Cl)c1)C(=O)O` [Example U82, (S)-4-(3-chloro-4-(9-(5-chloro-2-cyanobenzyl)-6-(1-methylcyclopropoxy)-9H-purin-8-yl)phenoxy)-2-methylbutanoic acid], the IC50 was 50.1 nM in experiment [1] (setting [5]) and more than 10000 nM in experiment [2] (setting [6]).

The values are drawn from patent US20250195530A1, “POLQ INHIBITORS” (ASTRAZENECA AB, priority 2022, published 2025).
